Assay results as given in US6608062B1 (dated 2003).

**Q.** Which melting point does the source give for `Cc1nnc(-c2ccccc2)c2nc(OCc3ncnn3C)c(C3CCCC3)n12` here?
**A.** 137 °C

**Q.** Which melting point does the source give for `Cn1ncnc1COc1nc2c(-c3ccccc3F)nncn2c1-c1ccccc1` here?
**A.** 195 °C

**Q.** Which melting point does the source give for `CCn1ncnc1COc1nc2c(-c3ccccc3)nnc(C)n2c1C1CCCC1` here?
**A.** 94 to 96 °C

**Q.** With `Cn1cnc(COc2nc3c(-c4ccccc4F)nncn3c2-c2ccccc2)n1` as the compound, how does the melting point read?
**A.** 186 °C

**Q.** For `Cn1ncnc1COc1nc2c(-c3cc(F)ccc3F)nncn2c1-c1ccccc1`, which melting point is on record?
**A.** 200 °C

**Q.** With `Cn1ncnc1COc1nc2c(-c3ccc(F)cc3)nncn2c1-c1ccccc1` as the compound, how does the melting point read?
**A.** 130 °C

**Q.** With `Cn1ncnc1COc1nc2c(-c3c(F)cccc3F)nncn2c1-c1ccccc1` as the compound, how does the melting point read?
**A.** 190 °C

**Q.** For `Cn1ncnc1COc1nc2c(-c3ccccc3F)nncn2c1C1CCC1`, which melting point is on record?
**A.** 120 °C

**Q.** With `Cn1ncnc1COc1nc2c(-c3ccccc3)nncn2c1-c1cccc(Cl)c1` as the compound, how does the melting point read?
**A.** 80 to 84 °C

**Q.** Which melting point does the source give for `Cc1nnc(-c2ccccc2)c2nc(OCc3ncnn3C)c(C3CCC3)n12` here?
**A.** 160 °C

**Q.** With `Cn1ncnc1COc1nc2c(-c3ccccc3)nncn2c1-c1ccccc1` (hydrate or solvate) as the compound, how does the melting point read?
**A.** 179 °C
